Structures are written as SMILES.

The subject of test [1] is K562 cells. Description: γH2AX immunofluorescence, K562. The test is classed as cell-based, human. On the procedure: Cells were seeded at densities of 1×10^6/mL in 24 well culture (Nalge Nunc, New York, USA) and treated with hydroxytyrosol (0, 20, 100 μM), for 24 hours at 37° C., 5% (v/v) CO2. Cells were then stained and quantified for the number of γH2AX foci per cell nuclei. Briefly, using cytofunnels and filter cards, aliquots of […] were cytospun (Shandon, Inc.) for 5 minutes at 500 rpm onto Poly-o-lysine slides (Menzel-Glaser, Germany). All cells were then fixed for 10 minutes with 4% paraformaldehyde (Sigma-Aldrich, USA), washed once for five minutes with PBS without calcium and magnesium and permeabilized using 0.1% Triton X-100(Sigma-Aldrich, USA) for 10 minutes at room temperature. […]
Images were acquired using a Zeiss LSM 510 Meta laser confocal microscope fitted with a Z-stage motor and 63× oil plan apochromat objective with a refractive index of 1.40. […] Images required for γH2AX quantification were acquired in 512×512 pixel format and loaded into Image J (Fiji version 1.44a). […]
Image J software was used for the quantification of foci in all experiments. […] Now clearly defined nuclear regions were selected, numbers of foci were quantified by using the find maxima tool. […] Foci were now quantified as a total number for all cells selected. The average number of foci per nucleus was calculated and recorded into Excel spread sheets (Microsoft, Redmond, Wash., USA). […]

Test [2] has as its system PBMC. Description: Total Antioxidant Capacity Assay, PBMC. The conditions noted are these: 50 μM hydroxytyrosol, 200 μM Oleuropein or Formulation 2 (dilution factor=4), 24 hours. Type of test: cell-based, human. On the procedure: Human peripheral blood mononuclear cells were seeded at 1×10^6 cells per well in 12 well culture plates (Nalge Nunc) with Formulation 2 (dilution factor=4) (Table 9), 50 μM hydroxytyrosol or 200 μM Oleuropein for 24 hours; 37° C., 5% (v/v) CO2. In separate experiments, cells were treated with 30 mM glucose for 72 hours prior to 24 hours incubation in fresh media and then a 24 hour incubation with the hydroxytyrosol-containing formulation 2 (dilution factor=4); 37° C., 5% (v/v) CO2. Experiments to determine the protection of cells following doxorubicin treatment involved pre-treatment with Formulation 2 (dilution factor=4) for 24 hours prior to 1 hour incubation with 1 μM doxorubicin. Cells were washed and incubated for a further 24 hours in fresh media; 37° C., 5% (v/v) CO2. Cells were harvested for their total protein by centrifugation at 1000×g for 10 minutes at 4° C. to pellet cell suspensions. […] Cell lysates were analyzed for their total antioxidant capacity. […] The sum of endogenous and food-derived antioxidants in the sample represented the total antioxidant activity of the cells and was measured by their ability to inhibit the oxidation of ABTS (2,2′-Azino-di-[3-ethylbenzthiazoline sulphonate]) in the presence of metmyoglobin using the Perkin Elmer Multi-plate reader (λem=750 nm). […]

Consider `OCCc1ccc(O)c(O)c1` [HT, 4-(2-hydroxyethyl)-1,2-benzenediol], for which the “DNA double-strand breaks (γH2AX accumulation)” value in test [1] (K562, 0, 20, 100 μM, 24 hours) is listed as “induces significant DNA-double strand breaks”. Moreover, the “effect on DNA damage by anti-cancer modalities (doxorubicin, vinblastine, mitomycin C, UVA, γ-radiation)” value in test [1] (K562, 100 μM hydroxytyrosol pre-treatment 24 hours) is on record as “enhances the DNA damaging effects”. The total antioxidant capacity entry in test [2] (listed as Hydroxytyrosol) is recorded as “significantly increased the total antioxidant”; in test [2] (listed as hydroxytyrosol), “enhance the antioxidant capacity”.

Source of the values: patent US10231939B2, “Hydroxytyrosol and oleuropein compositions for induction of DNA damage, cell death and LSD1 inhibition” (priority 2012, dated 2019).
